Measurements from patent EP1379539B1, “METHODS AND MATERIALS FOR MAKING AND USING TRANSGENIC DICAMBA-DEGRADING ORGANISMS” (BOARD OF REGENTS OF THE UNIVERSITY OF NEBRASKA, priority 2001, dated 2002).
Where two headings read alike, the source gives them in different places.

Experiments:
[1] = test system: transgenic tobacco plants bearing the oxygenase gene constructs with the transit peptide; settings: 0.5 lbs/acre to 5 lbs/acre tested
[2] = test system: Transgenic tobacco plants bearing oxygenase gene constructs but lacking the transit peptide coding sequence; settings: sprayed, 0.5 lbs/acre to 5 lbs/acre tested
[3] = test system: Transgenic plants containing the three gene construct (oxygenase, ferredoxin and reductase genes)
wild type tobacco plants = settings: for effect on non-transgenic plants: sprayed

COc1c(Cl)ccc(Cl)c1C(=O)O [dicamba, 2-methoxy-3,6-dichlorobenzoic acid]
concentration of dicamba at which sprayed plants grew and were healthy [1]: up to 5 lbs/acre | dicamba treatment to which plants displayed resistance (grew and were healthy) [2]: at least 2.5 lbs/acre | effect on transgenic plants ([3]; 0.125 Ib/acre dicamba, sprayed): grew and were healthy | predicted resistance to dicamba ([3]; predicted from plants with the oxygenase construct alone): ≥ 2.5 Ib/acre | effect on non-transgenic plants (wild type tobacco plants; 0.125 Ib/acre dicamba): reduced growth, withering and severe necrosis | sensitivity of the wild type plants (wild type tobacco plants; 0.5 lbs/acre of dicamba, sprayed at 10-12-leaf stage with non-ionic surfactant): 100% | effect on non-transgenic plants (wild type tobacco plants; same amounts of dicamba as the transgenic plants (0.5 lbs/acre to 5 lbs/acre)): reduced growth, withering and severe necrosis
